Source: patent US3960837A, “Polyamine compounds and methods for their production” (Parke, Davis & Company, priority 1974, dated 1976)

Key:
Format in all cases: cell-based
Enterobacter cloacae = experiment: in vitro antibacterial screening, minimal inhibitory concentration, Enterobacter cloacae; settings: Enterobacter cloacae (1 strain); Tryptic Soy broth; free base equivalent
Excerpt: (§1) Aminotrideoxybutirosin A and its acid-addition salts posses antibacterial activity. They show activity when tested by well-recognized in vitro antibacterial screening procedures. […] Where more than a single strain of test organism is indicated an average or approximate minimal inhibitory concentration is given.

Klebsiella pneumoniae = experiment: in vitro antibacterial screening, minimal inhibitory concentration, Klebsiella pneumoniae; settings: Klebsiella pneumoniae (1 strain); Tryptic Soy broth; free base equivalent
Excerpt: as §1

Pseudomonas aeruginosa = experiment: in vitro antibacterial screening, minimal inhibitory concentration, Pseudomonas aeruginosa; settings: Pseudomonas aeruginosa (6 strains), average or approximate; Tryptic Soy broth; free base equivalent
Excerpt: as §1

Serratia marcescens = experiment: in vitro antibacterial screening, minimal inhibitory concentration, Serratia marcescens; settings: Serratia marcescens (1 strain); Tryptic Soy broth; free base equivalent
Excerpt: as §1

Staphylococcus aureus = experiment: in vitro antibacterial screening, minimal inhibitory concentration, Staphylococcus aureus (butirosin resistant strain); settings: Staphylococcus aureus (1 strain), Tryptic Soy broth, free base equivalent
Excerpt: as §1
(§2) *Butirosin resistant strain

[1] = test system: Pseudomonas aeruginosa Aquilar; experiment: in vitro antibacterial screening, minimal inhibitory concentration, Pseudomonas aeruginosa Aquilar (butirosin resistant strain); settings: Pseudomonas aeruginosa Aquilar (1 strain), Tryptic Soy broth, free base equivalent
Excerpt: as §1, §2

Escherichia coli = experiment: in vitro antibacterial screening, minimal inhibitory concentration, Escherichia coli; settings: Escherichia coli (1 strain); Tryptic Soy broth; free base equivalent
Excerpt: as §1

In the case of `NCC[C@H](O)C(=O)N[C@@H]1C[C@H](N)[C@@H](O[C@H]2O[C@H](CN)CC[C@H]2N)[C@H](O[C@@H]2O[C@H](CN)[C@H](O)[C@H]2O)[C@H]1O` [Aminotrideoxybutirosin A, O-2,6-Diamino-2,3,4,6-tetradeoxy-α-D-erythro-hexopyranosyl-(1→4)-O-[5-amino-5-deoxy-β-D-xylofuranosyl-(1→5)]-N^1-[(S)-4-amino-2-hydroxy-1-oxobutyl]-2-deoxystreptamine], the MIC (Enterobacter cloacae) is reported as 6.3 µg/mL, the MIC (Klebsiella pneumoniae) is reported as 6.3 µg/mL and the MIC (Pseudomonas aeruginosa) is reported as 3.6 µg/mL. It also gave an MIC (Serratia marcescens) of 12.5 µg/mL, an MIC (Staphylococcus aureus) of 3.1 µg/mL and an MIC [1] of 6.3 µg/mL. It also gave an MIC (Escherichia coli) of 12.5 µg/mL.

In the case of Butirosin, the “Minimal Inhibitory Concentration” value (Enterobacter cloacae) is reported as 6.3 micrograms/ml, the “Minimal Inhibitory Concentration” value (Klebsiella pneumoniae) is reported as 6.3 micrograms/ml and the “Minimal Inhibitory Concentration” value (Pseudomonas aeruginosa) is reported as 19.8 micrograms/ml. For the same molecule, the “Minimal Inhibitory Concentration” value (Serratia marcescens) was 25 micrograms/ml, the “Minimal Inhibitory Concentration” value (Staphylococcus aureus) was 50 micrograms/ml and the “Minimal Inhibitory Concentration” value [1] was greater than 200 micrograms/ml. For the same molecule, the “Minimal Inhibitory Concentration” value (Escherichia coli) was greater than 200 micrograms/ml.
